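Cultured in 96-well plates, cells were exposed to test compound for 48 hours across five concentrations. GI50 marks 50% less growth. TGI is the concentration that stops growth completely.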
Experiments:
Assay in all cases: DTP human tumour cell line panel, 48 h
[1] = tested on: IGROV1 ovarian
[2] = tested on: MCF7 breast
[3] = tested on: SN12C renal
[4] = tested on: SK-MEL-2 melanoma
[5] = tested on: CAKI-1 renal
[6] = tested on: HCC-2998 colon
[7] = tested on: UO-31 renal
[8] = tested on: CCRF-CEM leukemia
[9] = tested on: NCI-H23 lung
[10] = tested on: MOLT-4 leukemia

Row | SMILES | GI50 [1] | TGI [1] | GI50 [2] | TGI [2] | GI50 [3] | TGI [3] | GI50 [4] | TGI [4] | GI50 [5] | TGI [5] | GI50 [6] | TGI [6] | GI50 [7] | TGI [7] | GI50 [8] | TGI [8] | GI50 [9] | TGI [9] | GI50 [10] | TGI [10]
1 | CCS(=O)(=O)c1ccc(OC)c(Nc2nccc(N(C)c3ccc4c(C)[nH]nc4c3)n2)c1 | 3.97 µM | 16.5 µM | 9160 nM | > 25 µM | 5.23 µM | > 25 µM | 5.45 µM | 14.9 µM | 3.75 µM | 12.3 µM | 8.18 µM | > 25 µM | 2050 nM | 10.9 µM | 8.15 µM | > 25 µM | 6050 nM | > 25 µM | 6710 nM | > 25 µM
2 | O=C(Nc1ccc(Nc2ccncc2)cc1)c1ccc(Nc2ccnc3ccc([N+](=O)[O-])cc23)cc1 | – | – | > 100000 nM | > 100 µM | > 100 µM | > 100 µM | > 100 µM | > 100 µM | > 100 µM | > 100 µM | > 100 µM | > 100 µM | – | – | > 100 µM | > 100 µM | > 100000 nM | > 100 µM | > 100000 nM | > 100 µM
3 | Cc1ccc(NS(=O)(=O)c2cc(C)ccc2C)cc1 | 7.02 µM | > 100 µM | 3590 nM | 83 µM | 5.89 µM | 19.9 µM | 3.2 µM | 9.64 µM | 3.25 µM | 29.2 µM | 7 µM | 28 µM | 12100 nM | 72 µM | 6.19 µM | > 100 µM | 4650 nM | 50.5 µM | 5430 nM | > 100 µM
4 | Cc1cc(N/N=C/c2nc(-c3ccccc3)oc2C)c2cc(Cl)ccc2n1 | 1.68 µM | 3.32 µM | 1640 nM | 3.56 µM | 1.78 µM | 3.49 µM | 18.7 µM | 38.7 µM | 1.69 µM | 3.1 µM | 1.73 µM | 3.23 µM | 1610 nM | 3.07 µM | – | – | 1700 nM | 3.61 µM | 2040 nM | 4.54 µM
5 | O=C(Nc1ccc2oc(=O)c(C(=O)O)cc2c1)Oc1ccccc1 | – | > 100 µM | – | > 100 µM | – | > 100 µM | – | > 100 µM | – | > 100 µM | – | > 100 µM | – | > 100 µM | – | – | – | > 100 µM | – | > 100 µM
6 | Fc1ccc(-c2nnc3sc(-c4cccc(Cl)c4)nn23)cc1Cl | > 100 µM | > 100 µM | > 100000 nM | > 100 µM | > 100 µM | > 100 µM | > 100 µM | > 100 µM | > 100 µM | > 100 µM | > 100 µM | > 100 µM | > 100000 nM | > 100 µM | > 100 µM | > 100 µM | > 100000 nM | > 100 µM | > 100000 nM | > 100 µM
7 | CNC1NC(=O)c2ccccc2N1Cc1ccc(F)cc1 (stereo not drawn) | – | > 100 µM | – | > 100 µM | – | > 100 µM | – | > 100 µM | – | > 100 µM | – | > 100 µM | – | 26 µM | – | > 100 µM | – | > 100 µM | – | > 100 µM
8 | CN1CCN(Cc2ccc(NC(=O)c3[nH]ncc3Nc3ncnc4c3CCC4)cc2)CC1 | 1.45 µM | 14.6 µM | 372 nM | 11.1 µM | 1.01 µM | 20.2 µM | 2.14 µM | 6.63 µM | 2.73 µM | 11.1 µM | 3.02 µM | 11.6 µM | 1500 nM | 7.61 µM | 0.611 µM | 11 µM | 1800 nM | 6.79 µM | 447 nM | 3 µM
9 | CC(=O)Oc1cccc2c1C(=O)C(Br)(Br)CCC2 | – | 30.6 µM | – | 5.71 µM | – | 19.7 µM | – | 21.5 µM | – | 10.7 µM | – | 31.1 µM | – | 23.2 µM | – | 9.91 µM | – | 18.7 µM | – | 13.8 µM
10 | CN(C)CC#Cc1cccc(C(=O)c2cnn(-c3ccc(F)cc3)c2N)c1 | > 21.1 µM | > 25 µM | > 25000 nM | > 25 µM | > 25 µM | > 25 µM | > 25 µM | > 25 µM | > 25 µM | > 25 µM | > 25 µM | > 25 µM | > 25000 nM | > 25 µM | > 25 µM | > 25 µM | > 25000 nM | > 25 µM | > 25000 nM | > 25 µM
11 | COc1cc(-c2cn(-c3ccc(Cl)cc3)c(=O)[nH]2)cc(OC)c1OC | > 100 µM | > 100 µM | > 100000 nM | > 100 µM | > 100 µM | > 100 µM | > 100 µM | > 100 µM | > 100 µM | > 100 µM | > 100 µM | > 100 µM | > 100000 nM | > 100 µM | > 100 µM | > 100 µM | > 100000 nM | > 100 µM | 19.9 nM | 8.86 µM
12 | O=C(Nc1ccncc1)C(=O)c1cn(S(=O)(=O)c2ccccc2F)c2ccccc12 | 3.83 µM | > 100 µM | 547 nM | 27.5 µM | 2.65 µM | > 90.6 µM | 5.2 µM | > 57.8 µM | 2.43 µM | > 70.8 µM | 5.36 µM | > 100 µM | 3660 nM | > 95 µM | 4.35 µM | > 100 µM | 965 nM | > 34.8 µM | 3450 nM | > 45.7 µM
13 | CCc1nc2ccc(Cc3ccc(C(=O)NO)cc3)cc2c(=O)n1CCc1ccccc1 | – | – | 1340 nM | 6.82 µM | – | – | 1.62 µM | 3.95 µM | – | – | 1.44 µM | 3.1 µM | – | – | 0.568 µM | > 100 µM | 1110 nM | 3.89 µM | 637 nM | 16.7 µM
14 | Cc1c(Cl)cccc1NC(=O)c1sc2nc3c(cc2c1N)CCCCCC3 | 0.426 µM | > 50 µM | 149 nM | > 50 µM | 0.408 µM | > 50 µM | 0.196 µM | 24.2 µM | – | – | 1.39 µM | > 50 µM | 1510 nM | > 50 µM | 0.176 µM | > 50 µM | 273 nM | > 50 µM | 265 nM | > 50 µM

From PubChem BioAssay (NCI)
